Experimental data: EP4644383A1 (Jiangsu Yahong Meditech Co., Ltd., priority 2022, dated 2024)
Like-named read-outs stand apart in the source and are kept apart here.

Columns and labels:
FGFR1 = molecular target: T1, FGFR1 (Homo sapiens, UniProt P11362); test: FGFR1 kinase activity inhibition assay (LanthaScreen TR-FRET); assay type: biochemical
T1 construct: cytoplasmic domain [398-822 (terminal) amino acids]; purchased Carna 08-133
Experimental: PV3552) and 10 mM EDTA were added to quench the kinase reaction, and incubated at 22°C for 60 minutes. • ⑤ The reaction was measured using a PerkinElmer EnVision multimode plate reader through TR-FRET dual wavelength detection. • 1. The RFU values were copied from the Envision program. • 2. The ratio of RFU 520nm/RFU 495nm was calculated. • 3. The value of the ratio was converted to a percentage inhibition value. % Inhibition = (max-data)/(max-min) × 100 [formula] "Min" represents the ratio of the control without enzyme, "max" represents the ratio of the DMSO control, and "data" represents the ratio of the compounds in wells with different concentrations. […] "Top" refers to the maximum response, "Bottom" refers to the minimum response, and "HillSlope" refers to the slope of the curve.

FGFR3 = molecular target: T2, FGFR3 (Homo sapiens, UniProt P22607); test: FGFR3 kinase activity inhibition assay (LanthaScreen TR-FRET); assay type: biochemical; conditions: for Selectivity (X) FGFR1/FGFR3: ratio of IC50 FGFR1/FGFR3, selectivity towards FGFR3
T2 construct: FGFR3's cytoplasmic domain [436-806 (terminal) amino acids]; purchased Carna 08-135
Summary of the method: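 Read-out is TR-FRET, with the 520 nm/495 nm emission ratio normalised to DMSO (max) and enzyme-free (min) controls. Enzyme was the FGFR3 cytoplasmic domain, residues 436-806. EDTA (10 mM) stopped the reaction, followed by 60 min at 22 °C before reading.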

[1] = FGFR1 kinase, TR-FRET, read-out: IC50 (nM) FGFR1
[2] = FGFR3 kinase, TR-FRET, read-out: IC50 (nM) FGFR3

T2 sequence (P22607 436-806): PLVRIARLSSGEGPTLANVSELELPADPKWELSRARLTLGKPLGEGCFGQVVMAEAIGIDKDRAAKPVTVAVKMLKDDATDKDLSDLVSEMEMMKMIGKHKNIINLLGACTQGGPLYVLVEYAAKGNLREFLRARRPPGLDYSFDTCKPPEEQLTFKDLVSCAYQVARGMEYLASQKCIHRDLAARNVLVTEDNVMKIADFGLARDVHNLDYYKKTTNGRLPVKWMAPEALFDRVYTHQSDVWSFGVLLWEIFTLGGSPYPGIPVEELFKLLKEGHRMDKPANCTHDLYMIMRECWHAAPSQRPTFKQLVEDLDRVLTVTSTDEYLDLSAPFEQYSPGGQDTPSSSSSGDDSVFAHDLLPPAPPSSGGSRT
T1 sequence (P11362 398-822): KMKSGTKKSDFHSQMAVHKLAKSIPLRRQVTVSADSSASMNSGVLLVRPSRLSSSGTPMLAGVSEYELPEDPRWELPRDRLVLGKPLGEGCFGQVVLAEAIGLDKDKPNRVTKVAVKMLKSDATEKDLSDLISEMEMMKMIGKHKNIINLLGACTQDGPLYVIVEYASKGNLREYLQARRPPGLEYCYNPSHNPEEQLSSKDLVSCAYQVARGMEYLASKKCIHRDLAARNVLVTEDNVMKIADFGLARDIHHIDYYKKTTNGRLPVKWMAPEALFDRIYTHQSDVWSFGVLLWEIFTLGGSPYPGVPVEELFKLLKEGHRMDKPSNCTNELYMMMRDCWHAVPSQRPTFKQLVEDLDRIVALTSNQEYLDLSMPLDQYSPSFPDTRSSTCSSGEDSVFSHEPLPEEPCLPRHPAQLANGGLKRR

Structure (SMILES) | IC50 (FGFR1; [1]) | IC50 (FGFR3; [2]) | Selectivity (X) FGFR1/FGFR3 (FGFR3) | IC50 (FGFR1) | IC50 (FGFR3)
CC(Oc1ccc2[nH]nc(-c3cnn(C)c3)c2c1)c1ccnc2ccccc12 (stereo not drawn) [Example 87, 4-(1-((3-(1-methyl-1H-pyrazol-4-yl)-1H-indazol-5-yl)oxy)ethyl)quinoline] | > 100 nM | 10 to 100 nM | B (B represents 20 ≤ multiple X<50) |  | 
Cc1ccc2ncccc2c1C(C)Oc1ncc2[nH]nc(-c3cnn(C)c3)c2n1 (stereo not drawn) [Example 110, 6-methyl-5-(1-((3-(1-methyl-1H-pyrazol-4-yl)-1H-pyrazino [4,3-d]pyrimidin-5-yl)oxy)ethyl)quinoline] |  |  | A (A represents 1 ≤ multiple X<20) | 10 to 100 nM | 1 to 10 nM
CCc1ccc2ncccc2c1C(C)Oc1ccc2[nH]nc(-c3cnn(C)c3)c2c1 (stereo not drawn) [Example 111, 6-ethyl-5-(1-((3-(1-methyl-1H-pyrazol-4-yl)-1H-indazol-5-yl)oxy)ethyl)qu inoline] | 10 to 100 nM | 1 to 10 nM | A (A represents 1 ≤ multiple X<20) |  | 
Cc1ccc2nccnc2c1C(C)Oc1ccc2[nH]nc(-c3cnn(C)c3)c2c1 (stereo not drawn) [Example 112] | 10 to 100 nM | < 1 nM | A (A represents 1 ≤ multiple X<20) |  | 
CCC(Oc1ccc2[nH]nc(-c3cnn(C)c3)c2c1)c1c(C)ccc2ncccc12 (stereo not drawn) [Example 113, 6-methyl-5-(1-((3-(1-methyl-1H-pyrazol-4-yl)-1H-indazol-5-yl)oxy)propyl)quinoline] | 10 to 100 nM | 1 to 10 nM | A (A represents 1 ≤ multiple X<20) |  | 
CC(Oc1ccc2[nH]nc(-c3cnn(C)c3)c2c1)c1nccc2ncccc12 (stereo not drawn) [Example 120, 5-(1-((3-(1-methyl-1H-pyrazol-4-yl)-1H-indazol-5-yl)oxy)ethyl)-1,6-naphthyridine] | > 100 nM | 1 to 10 nM | B (B represents 20 ≤ multiple X<50) |  | 
Cc1cnc2cccc(C(C)Oc3ccc4[nH]nc(-c5cnn(C)c5)c4c3)c2c1 (stereo not drawn) [Example 128, 3-methyl-5-(1-((3-(1-methyl-1H-pyrazol-4-yl)-1H-indazol-5-yl)oxy)ethyl)qu inoline] | > 100 nM | 1 to 10 nM | B (B represents 20 ≤ multiple X<50) |  | 
CC(C)c1ccc2nccnc2c1C(C)Oc1ccc2[nH]nc(-c3cnn(C)c3)c2c1 (stereo not drawn) [Example 129, 6-isopropyl-5-(1-((3-(1-methyl-1H-pyrazol-4-yl)-1H-indazol-5-yl)oxy)ethyl)quino xaline] | 1 to 10 nM | 1 to 10 nM | A (A represents 1 ≤ multiple X<20) |  | 
CC(Oc1ccc2[nH]nc(-c3cnn(C)c3)c2c1)c1cc(C2CC2)cc2nccnc12 (stereo not drawn) [Example 139, 7-cyclopropyl-5-(1-((3-(1-methyl-1H-pyrazol-4-yl)-1H-indazol-5-yl)oxy)ethyl)qu inoxaline] | > 100 nM | 1 to 10 nM | C (C represents 50 ≤ multiple X<100) |  | 
CC(Oc1ccc2[nH]nc(-c3cnn(C)c3)c2c1)c1cc(C#N)cc2nccnc12 (stereo not drawn) [Example 141, 8-(1-((3-(1-methyl-1H-pyrazol-4-yl)-1H-indazol-5-yl)oxy)ethyl)qu inoxaline-6-carbonitrile] | 10 to 100 nM | < 1 nM | B (B represents 20 ≤ multiple X<50) |  | 
CC(Oc1ccc2[nH]nc(-c3cnn(C)c3)c2c1)c1cc(Br)cc2nccnc12 (stereo not drawn) [Example 143, 7-bromo-5-(1-((3-(1-methyl-1H-pyrazol-4-yl)-1H-indazol-5-yl)oxy)ethyl)quinoxaline] | 10 to 100 nM | 1 to 10 nM | B (B represents 20 ≤ multiple X<50) |  | 
CC(C)c1cc(C(C)Oc2ccc3[nH]nc(-c4cnn(C)c4)c3c2)c2nccnc2c1 (stereo not drawn) [Example 144, 7-isopropyl-5-(1-((3-(1-methyl-1H-pyrazol-4-y1)-1H-indazol-5-yl)oxy)ethyl)quino xaline] |  |  | C (C represents 50 ≤ multiple X<100) | > 100 nM | < 1 nM
CC(Oc1ccc2[nH]nc(-c3cnn(C)c3)c2c1)c1cc(C(F)F)cc2nccnc12 (stereo not drawn) [Example 145, 7-(difluoromethyl)-5-(1-((3-(1-methyl-1H-pyrazol-4-yl)-1H-indazol-5-yl)oxy)ethyl)qu inoxaline] | 1 to 10 nM | < 1 nM | A (A represents 1 ≤ multiple X<20) |  | 
CC(Oc1ccc2[nH]nc(-c3cnn(C)c3)c2c1)c1cccc2ncc(N)cc12 (stereo not drawn) [Example 147, 5-(1-((3-(1-methyl-1H-pyrazol-4-yl)-1H-indazol-5-yl)oxy)ethyl)qu inoline-3-amine] | 10 to 100 nM | 1 to 10 nM | A (A represents 1 ≤ multiple X<20) |  | 
COc1cc(C(C)Oc2ccc3[nH]nc(-c4cnn(C)c4)c3c2)c2cccnc2c1 (stereo not drawn) [Example 148, 7-methoxy-5-(1-((3-(1-methyl-1H-pyrazol-4-yl)-1H-indazol-5-yl)oxy)ethyl)qu inoline] | > 100 nM | 1 to 10 nM | C (C represents 50 ≤ multiple X<100) |  | 
CC(Oc1ccc2[nH]nc(-c3ccc(N4CCS(=O)(=O)CC4)nc3)c2c1)c1cccc2nccnc12 (stereo not drawn) [Example 149, 4-(5-(5-(1-(quinoxalin-5-yl)ethoxy)-1H-indazol-3-yl)pyridin-2-yl)thiomorpholine1,1-dioxide] | 10 to 100 nM | < 1 nM | B (B represents 20 ≤ multiple X<50) |  | 
CC(Oc1ccc2[nH]nc(-c3cnn(C)c3)c2c1)c1cc(N)cc2ncccc12 (stereo not drawn) [Example 150, 5-(1-((3-(1-methyl-1H-pyrazol-4-yl)-1H-indazol-5-yl)oxy)ethyl)qu inoline-7-amine] | 1 to 10 nM | < 1 nM | A (A represents 1 ≤ multiple X<20) |  | 
CC(Oc1ccc2[nH]nc(-c3cnn(CCS(=O)(=O)N(C)C)c3)c2c1)c1cccc2nccnc12 (stereo not drawn) [Example 160, N,N-dimethyl-2-(4-(5-(1-(quinoxalin-5-yl)ethoxy)-1H-indazol-3-yl)-1H-pyrazol-1-yl)ethane-1-sulfonamide] | > 100 nM | 1 to 10 nM | B (B represents 20 ≤ multiple X<50) |  | 
Cc1ccc2nnccc2c1C(C)Oc1ccc2[nH]nc(-c3cnn(C)c3)c2c1 (stereo not drawn) [Example 168, 6-methyl-5-(1-((3-(1-methyl-1H-pyrazol-4-yl)-1H-indazol-5-yl)oxy)ethyl)cinnoline] | 10 to 100 nM | 1 to 10 nM | A (A represents 1 ≤ multiple X<20) |  | 
CC(Oc1ccc2[nH]nc(-c3cnn(C4CN(C(N)=O)C4)c3)c2c1)c1cc(Cl)cc2nccnc12 (stereo not drawn) [Example 169, 3-(4-(5-(1-(7-chloroquinoxalin-5-yl)ethoxy)-1H-indazol-3-yl)-1H-pyrazol-1-yl)aze tidine-1-carboxamide] | 10 to 100 nM | 1 to 10 nM | A (A represents 1 ≤ multiple X<20) |  | 
CC(Oc1ccc2[nH]nc(-c3cnn(C4CN(C(=O)CN)C4)c3)c2c1)c1cccc2nccnc12 (stereo not drawn) [Example 175, 2-amino-1-(3-(4-(5-(1-(quinoxalin-5-yl)ethoxy)-1H-indazol-3-yl)-1-pyrazol-1-yl)azetidin-1-yl)ethan-1-one] |  |  | A (A represents 1 ≤ multiple X<20) | 1 to 10 nM | < 1 nM
